51 compounds from PubChem BioAssay AID1996 can be followed below.

The structures appear in SMILES notation. Values after ≈ are worked out from the molar mass of the structure shown.

The conditions of the series: buffer; pH 7.4; 200.0 µM.
`COc1cc(Br)c(CC(=O)NC2CC2)cc1OC`: the solubility (kinetic) – broadly, solubility judged after dilution from a stock solution rather than from solid – was > 47.1 µg/mL.

In turn, `CCN(CC)c1ccc(NC(=O)Nc2ccccc2)cc1` came in with a kinetic solubility of 4.1 µg/mL (≈ 14.5 µM). In turn, `O=S(=O)(NCCc1ccccn1)c1ccc(OC(F)(F)F)cc1` returned a kinetic solubility of 51.9 µg/mL (≈ 150 µM). The result for `Cc1cc(OCCCn2ccnc2)ccc1[N+](=O)[O-].O=C(O)C(=O)O` reads 36.8 µg/mL. As for `Cc1cccc(N2C(=O)CSC23CCCCC3)c1`, the solubility (kinetic) is 20.3 µg/mL (≈ 77.7 µM). The result for `CCCc1nnc(SCC(=O)Nc2nccs2)o1` reads > 42.7 µg/mL. To `CCC1CCC2(CC1)NC(=O)N(CC(=O)NCc1ccccc1Cl)C2=O` (stereo unspecified) belongs 19.9 µg/mL (≈ 52.7 µM); to `COc1cc2nc(CN3CCN(S(=O)(=O)c4cc(C)ccc4C)CC3)[nH]c(=O)c2cc1OC`, 9.7 µg/mL (≈ 20.5 µM); to `CCN1CCN(Cc2cc(=O)oc3ccc(C)cc23)CC1`, > 43 µg/mL. The result for `N#Cc1cc(N2CCOCC2)nc2ccccc12` reads 15.3 µg/mL (≈ 63.9 µM).

`COc1ccc(C(=O)O/N=C(\N)c2ccccc2)cc1` showed a solubility (kinetic) of 27.1 µg/mL (≈ 100 µM). The result for `Cl.Fc1ccc(Nc2ncnc3ccccc23)cc1` reads 36.8 µg/mL.

Turning to `Cc1cc(C(=O)CSc2nc(N)cc(=O)[nH]2)c(C)n1CC1CCCO1` (stereo unspecified), the solubility (kinetic) is > 54.4 µg/mL. For `CC(=O)Nc1ccc(S(=O)(=O)N2CCCC(C(=O)O)C2)cc1` (stereo unspecified), the kinetic solubility was > 49 µg/mL.

For the compound `CCc1cccc(NC(=O)CCCN2C(=O)NC(C)(C)C2=O)c1`, the kinetic solubility was > 47.6 µg/mL. The result for `CCOc1ccccc1C(=O)NCC(=O)NCC1CCCCC1` reads 5.6 µg/mL (≈ 17.6 µM); that for `O=C(O)c1cccc([N+](=O)[O-])c1C(=O)Nc1cccc2ccccc12`, 39.5 µg/mL (≈ 117 µM); that for `CCN(CC)CCn1c(=S)[nH]c2ccc(Br)cc2c1=O`, > 53.4 µg/mL. To `CN(Cc1ccccc1F)c1ncnc2sccc12` belongs 33.7 µg/mL (≈ 123 µM); to `O=C(N/C(=C/c1ccccc1Cl)C(=O)N1CCOCC1)c1ccccc1`, > 55.6 µg/mL; to `Cc1cc2ccc3ccccc3c2cc1CN(C)C.Cl`, 24.5 µg/mL. To `Cn1nccc1C(=O)NC1CCN(Cc2ccccc2)CC1` belongs > 44.8 µg/mL; to `Clc1nc(N2CCOCC2)ncc1Br`, > 41.8 µg/mL. On to `CS(=O)(=O)Nc1cccc(-c2cnc3ccccc3n2)c1`, for which the kinetic solubility is > 44.9 µg/mL. To `CC(=O)Nc1ccc(S(=O)(=O)NCC(=O)Nc2ccc3c(c2)OCO3)cc1` belongs > 58.7 µg/mL; to `COc1cccc(NC(=O)C(=O)NCCCn2ccnc2)c1`, 42.2 µg/mL (≈ 140 µM). The result for `O=C(Nc1ccc(F)cc1)NC1CCN(Cc2c(F)cccc2Cl)CC1` reads 2.8 µg/mL (≈ 7.37 µM); that for `Cc1cc(/C=C(\C#N)C(=O)O)c(C)n1CCC(C)C`, > 39.1 µg/mL. To `CCc1ccc(-c2cnc3nc[nH]c(=O)c3n2)cc1` belongs > 37.8 µg/mL. Compound `O=C(Cc1ccccc1[N+](=O)[O-])Nc1ccc2c(c1)OCO2` came in with a kinetic solubility of 14.6 µg/mL (≈ 48.6 µM). Turning to `N#Cc1cccc(S(=O)(=O)NCCOc2ccccc2F)c1`, the solubility (kinetic) was > 48.1 µg/mL. The result for `O=C(CSc1ccccc1)NC1=NCCS1` reads 32.4 µg/mL (≈ 128 µM); that for `CCOC(=O)C1CCCN(S(=O)(=O)c2ccc3ccccc3c2)C1` (stereo unspecified), 13 µg/mL (≈ 37.4 µM); that for `Cc1cccc(C(C)C)c1NS(=O)(=O)c1cn(C)nc1C`, > 46.1 µg/mL. To `COc1cc([N+](=O)[O-])ccc1N1C(=O)CC(Sc2nccc(C)n2)C1=O` (stereo unspecified) belongs > 56.2 µg/mL. To `COc1nc(/C=C/N(C)C)c([N+](=O)[O-])c(OC)n1` belongs 17.2 µg/mL (≈ 67.7 µM). With `Cc1ccc2nc3cc([N+](=O)[O-])cc([N+](=O)[O-])c3cc2c1`, the kinetic solubility was 0.8 µg/mL (≈ 2.82 µM). To `CC(=O)NC1(C(F)(F)F)NC(=O)N(CCc2ccccc2)C1=O` (stereo unspecified) belongs > 49.4 µg/mL; to `O=[N+]([O-])c1ccccc1CN1CC=C(c2ccc(F)cc2)CC1`, 2.3 µg/mL (≈ 7.36 µM); to `COc1ccc(NC(=O)COC(=O)c2cc(S(=O)(=O)N3CCCC3)ccc2O)cc1`, > 65.2 µg/mL. As for `CCOC(=O)c1cn2nc(N3CCCCC3)ccc2n1`, the kinetic solubility was > 41.1 µg/mL. The result for `Cn1c(=O)c2sccc2n(Cc2cccc(Br)c2)c1=O` reads 1.4 µg/mL (≈ 3.99 µM).

Regarding `Cc1ccc(NC(=O)C2CC(Cl)=CCC2C(=O)O)c([N+](=O)[O-])c1` (stereo unspecified), the kinetic solubility was > 50.8 µg/mL. Turning to `O=C(O)/C=C\C(=O)Nc1ccc(OC(F)F)cc1`, the kinetic solubility amounted to 35.5 µg/mL (≈ 138 µM). In the case of `O=S(=O)(c1ccccc1)c1nc(-c2ccco2)oc1N1CCCCC1`, the kinetic solubility worked out at 16.1 µg/mL (≈ 44.9 µM). The result for `Cn1c(=O)c2c(O)c(C=Nc3ccc(F)cc3)c(=O)n(C)c2n(C)c1=O` reads 32.6 µg/mL (≈ 91 µM); that for `Cc1cc(C)nc(NC(=O)c2ccc([N+](=O)[O-])c(C)c2)n1`, 13.3 µg/mL (≈ 46.5 µM); that for `CC(=O)N1C(=O)NC2=C(C(=O)CCC2)C1c1cccc([N+](=O)[O-])c1` (stereo unspecified), > 49.4 µg/mL. The result for `Nc1nc(Nc2ccccc2F)nc(NCCO)c1[N+](=O)[O-]` reads 45.8 µg/mL (≈ 149 µM); that for `O=C(c1ccc(Cl)cc1)N1CCN(CCOc2ccccc2)CC1`, > 51.7 µg/mL; that for `CCn1c(O)c(C=NCCN2CCOCC2)c(=O)n(CC)c1=S`, > 51.1 µg/mL.
